Several values for one entry are separate records, joined by “and”; a condition that tells them apart may be missing. Equal entries are not always repeated.
Assays:
[1] = system: parental R1610 cells; assay: Apoptosis of parental R1610 cells, Annexin V-FITC/PI; type: cell-based, hamster; settings: 24 hours
Procedure: MDX-1338 or isotype control were added to CXCR4-transfected cells (A) or R1610 parental cells (B) and stained with Annexin V-FITC and PI. The percentages of cells that were positive for Annexin V only or doubly positive for both Annexin V and PI double positive are illustrated.
The percent of cells that are positive for Annexin V only or both Annexin V and PI double positive was determined.

[2] = system: SU-DHL-6 B cell lymphoma cells; assay: SU-DHL-6 subcutaneous xenograft; type: in vivo, mouse
Procedure: Additional subcutaneous xenograft tumor models were tested for the ability of anti-CXCR4 antibodies to inhibit tumor growth, in experiments similar to those described above and in Example 9. […] Although the tumor cells in vivo were stainable by the mAb by immunohistochemistry, it is unclear at what stage of their tumor growth CXCR4 began to be expressed.

[3] = system: Bortezomib-resistant JJN-3R cells; assay: JJN-3R MM xenograft in SCID mice; type: in vivo
[4] = system: RPMI-8226 cells; assay: RPMI-8226 MM xenograft in SCID mice; type: in vivo
Procedure: The mice were randomized (n=8) when the tumor volume reached approximately 20 mm^3, dosed on Days 0, 3, 7, 10 and 14 with MDX-1338 (10 mg/kg/dose) alone or in combination with 50 mg/kg lenalidomide or in combination with 0.8 mg/kg bortezomib.

For “BMS-936564: fully human anti-CXCR4 monoclonal antibody; VH SEQ ID NO: 25, VL SEQ ID NO: 29”, the “apoptosis of parental R1610 cells” value [1] was “did not exhibit apoptosis”, the “% Tumor Growth Inhibition (Monotherapy)” value ([2]; DHL6) was 55% and 77% and the tumor growth inhibition ([2]; SU-DHL-6, 15 mg/kg) was “approximately 60%”. For the same substance, the “mice tumor-free at the end of study” value ([3]; 30-mg/kg group) was 4 out of 7, the “% Tumor Growth Inhibition (Monotherapy)” value ([3]; JJN3R) was 97% and the “tumor growth inhibition” value ([3]; JJN-3R) was “MDX-1338 = 100%”. For the same substance, the “median tumor growth inhibition” value ([3]; day 25, 10 or 30 mg/kg/dose IP, compared to isotype control) was 100%, the “delay of mean tumor growth” value ([4]; Day 44, 10 mg/kg/dose, compared to vehicle control) was 53% and the “mean tumor growth inhibition” value ([4]; Day 44, compared to isotype control, MDX-1338 10 mg/kg, lenalidomide 50 mg/kg, bortezomib 0.8 mg/kg) was 61%. The “tumor growth inhibition” value ([4]; RPMI-8226) was “MDX-1338 = 61%”.
